Source: patent publication US20110287439A1, “CLAS[…]” (reMYND NV, priority 2008, published 2011)

Test system: Yeast strain SKAM4 RAD54-LacZ reporter
Test: Radarscreen with luminescence and S9 metabolic activation
Settings: analysed with S9 compared with without S9; 6 hours at 30° C.; 2% S9
Description: Yeast strain SKAM4 bears a RAD54-LacZ reporter construct, which is responsive to agents that affect the integrity of its genomic DNA. Compounds supplied to the growth medium can be evaluated for genotoxicity by determining their effect on reporter gene expression. Reporter activity is measured by adding Beta-Glo® cell lyses buffer, containing a beta-galactosidase substrate, to the yeast culture. The substrate is cleaved by beta-galactosidase to luciferin and galactose. Luciferin is then used in a luciferase reaction to generate light. Metabolic activation of the compounds is obtained by adding post mitochondrial supernatant S9. […]
OD595 of the overnight cultures has to be determined. […]
600 μl S9-mixture is added to 5280 μl of the diluted culture and 600 μl buffer without S9 to 5280 μl of the diluted culture (these are quantities to fill 1 plate). […] The OD595 is measured after the plates have been vortexed rigorously to resuspend the precipitated yeast cells. […]
50 μl Beta-Glo® cell lyses buffer is added to the wells and the plate is vortexed for 45-60 min whereafter luminescence is measured. […]
Luminescence read out blanc correction is performed by subtraction of the luminescence value of medium without yeast cells from the luminescence read out of a sample with compound and dividing it by the corrected and normalized OD595 value. […]

## CC[n+]1c(-c2ccccc2)c2cc(N)ccc2c2ccc(N)cc21 [ethidium bromide]
  signal (induction factor): higher signal when analysed with S9 than when analysed without S9
